Measured values from ChEMBL document CHEMBL1155523, “Synthesis and biological activity of alpha-L-fucosyl ceramides, analogues of the potent agonist, alpha-D-galactosyl ceramide KRN7000” (2010).

Tested on: iNKT
Assay: Effect on immune response in human iNKT cells stimulated by antigen-presenting CD1d assessed as cellular expansion at 250 nM after 8 days by FACSCalibur flow cytometry relative to control
Type: functional

Row | SMILES | Activity [%]
1 | CCCCCCCCCCCCCCCCCCCCCCCCCC(=O)N[C@@H](CO[C@@H]1O[C@@H](C)[C@@H](O)[C@H](O)[C@@H]1O)[C@H](O)[C@H](O)CCCCCCCCCCCCCC | 12
2 | CCCCC/C=C\C/C=C\CCCCCCCCCC(=O)N[C@@H](CO[C@@H]1O[C@@H](C)[C@@H](O)[C@H](O)[C@@H]1O)[C@H](O)[C@H](O)CCCCCCCCCCCCCC | 0.56
3 | CCCCCCCCCCCCCCCCCCCCCCCC(=O)N[C@@H](CO[C@@H]1O[C@@H](C)[C@@H](O)[C@H](O)[C@@H]1O)[C@H](O)[C@H](O)CCCCCCCCCCCCCC | 1.1
4 | CCCCCCCCCCCCCCCCC(O)C(=O)N[C@@H](CO[C@@H]1O[C@@H](C)[C@@H](O)[C@H](O)[C@@H]1O)[C@H](O)[C@H](O)CCCCCCCCCCCCCC (stereo not given in full) | 2.9
5 | CCCCCCCCCCCCCCCCCCCCCCCCCC(=O)N[C@@H](CO[C@H]1O[C@H](CO)[C@H](O)[C@H](O)[C@H]1O)[C@H](O)[C@H](O)CCCCCCCCCCCCCC [RGI-7000] | 26
